{"source": "patent US9370520B2", "about": "“Macrocyclic LRRK2 kinase inhibitors” (IPSEN PHARMA S.A.S., priority 2011, dated 2016)", "key": {"full-length LRRK2": {"target": "T1, full-length LRRK2 (Homo sapiens, UniProt Q5S007)", "T1 construct": "full-length; made in house; host or cells: HEK293T", "assay": "LRRKtide 32P-ATP peptide kinase assay (Protocol 1), full-length LRRK2", "assay_type": "biochemical", "conditions": "10 μM ATP, 200 μM lrrktide", "procedure": "(§1) The inhibition of LRRK2 and LRRK1 kinase was assessed using LRRK2 and LRRK1 recombinant protein in an in vitro peptide-based kinase assay.\n(§2) LRRK2 protein is prepared as described in Daniëls et al. ((2011) J Neurochem 116, 304-315.). HEK293T cells are transfected with pCHMWS-3xflag-LRRK2 plasmid using polyethyleneimine and lysed after 48-72 hours in lysis buffer (Tris 20 mM pH 7.5, NaCl 150 mM, EDTA 1 mM, Triton 1%, Glycerol 10%, protease inhibitor cocktail). Lysates are cleared by centrifugation at 20,000 g for 10 minutes and incubated with normal mouse IgGs bound to agarose beads to remove proteins aspecifically binding to agarose or mouse IgGs. After removal of the IgG bead slurry, lysates are incubated for 3 to 18 hours with flagM2 bound to agarose beads. Beads are washed 4 times with wash buffer (Tris 25 mM pH 7.5, NaCl 400 mM, Triton 1%) and rinsed in kinase buffer (Tris-HCl 25 mM pH 7.5, 10 mM MgCl2, 2 mM dithiothreitol (DTT), 0.02% triton, 5 mM beta-glycerophosphate, 0.1 mM Na3VO4). Proteins are eluted in 5 volumes of kinase buffer containing 100 μg/ml 3xflag peptide. For assays using purified protein bound to affinity resin, affinity beads are resuspended in an equal volume of kinase buffer unless otherwise indicated. Purity and concentration are assessed by SDS-PAGE (3-8% tris-acetate SDS gel) and Coomassie Brilliant Blue staining or silver staining. Alternatively, a truncated LRRK2 enzyme (GST tagged LRRK2 of amino acids 970-2527) and a truncated LRRK2-G2019S (GST tagged LRRK2-G2019S of amino acids 970-2527) are used.\nFor Irrktide phosphorylation, recombinant LRRK2 is incubated with 6 μCi of 32P-ATP (3000 Ci/mmol), 200 μM Irrktide, 10 μM ATP and compound or solvent per 40 μl reaction for 30 minutes at 30° C. Compounds are tested at concentrations ranging from […]; the final amount of DMSO in the kinase reaction is 1%. Reactions are stopped and spotted to P81 phosphocellulose paper and washed 4×10 minutes in 75 mM phosphoric acid. Lrrktide phosphorylation levels are measured via autoradiography. Kinase assays are performed for each condition in triplicate. […]"}, "[1]": {"target": "T2, truncated LRRK2 (GST tagged LRRK2 of amino acids 970-2527) (Homo sapiens, UniProt Q5S007)", "T2 construct": "GST tagged LRRK2 of amino acids 970-2527; GST", "T2 sequence (Q5S007 970-2527)": "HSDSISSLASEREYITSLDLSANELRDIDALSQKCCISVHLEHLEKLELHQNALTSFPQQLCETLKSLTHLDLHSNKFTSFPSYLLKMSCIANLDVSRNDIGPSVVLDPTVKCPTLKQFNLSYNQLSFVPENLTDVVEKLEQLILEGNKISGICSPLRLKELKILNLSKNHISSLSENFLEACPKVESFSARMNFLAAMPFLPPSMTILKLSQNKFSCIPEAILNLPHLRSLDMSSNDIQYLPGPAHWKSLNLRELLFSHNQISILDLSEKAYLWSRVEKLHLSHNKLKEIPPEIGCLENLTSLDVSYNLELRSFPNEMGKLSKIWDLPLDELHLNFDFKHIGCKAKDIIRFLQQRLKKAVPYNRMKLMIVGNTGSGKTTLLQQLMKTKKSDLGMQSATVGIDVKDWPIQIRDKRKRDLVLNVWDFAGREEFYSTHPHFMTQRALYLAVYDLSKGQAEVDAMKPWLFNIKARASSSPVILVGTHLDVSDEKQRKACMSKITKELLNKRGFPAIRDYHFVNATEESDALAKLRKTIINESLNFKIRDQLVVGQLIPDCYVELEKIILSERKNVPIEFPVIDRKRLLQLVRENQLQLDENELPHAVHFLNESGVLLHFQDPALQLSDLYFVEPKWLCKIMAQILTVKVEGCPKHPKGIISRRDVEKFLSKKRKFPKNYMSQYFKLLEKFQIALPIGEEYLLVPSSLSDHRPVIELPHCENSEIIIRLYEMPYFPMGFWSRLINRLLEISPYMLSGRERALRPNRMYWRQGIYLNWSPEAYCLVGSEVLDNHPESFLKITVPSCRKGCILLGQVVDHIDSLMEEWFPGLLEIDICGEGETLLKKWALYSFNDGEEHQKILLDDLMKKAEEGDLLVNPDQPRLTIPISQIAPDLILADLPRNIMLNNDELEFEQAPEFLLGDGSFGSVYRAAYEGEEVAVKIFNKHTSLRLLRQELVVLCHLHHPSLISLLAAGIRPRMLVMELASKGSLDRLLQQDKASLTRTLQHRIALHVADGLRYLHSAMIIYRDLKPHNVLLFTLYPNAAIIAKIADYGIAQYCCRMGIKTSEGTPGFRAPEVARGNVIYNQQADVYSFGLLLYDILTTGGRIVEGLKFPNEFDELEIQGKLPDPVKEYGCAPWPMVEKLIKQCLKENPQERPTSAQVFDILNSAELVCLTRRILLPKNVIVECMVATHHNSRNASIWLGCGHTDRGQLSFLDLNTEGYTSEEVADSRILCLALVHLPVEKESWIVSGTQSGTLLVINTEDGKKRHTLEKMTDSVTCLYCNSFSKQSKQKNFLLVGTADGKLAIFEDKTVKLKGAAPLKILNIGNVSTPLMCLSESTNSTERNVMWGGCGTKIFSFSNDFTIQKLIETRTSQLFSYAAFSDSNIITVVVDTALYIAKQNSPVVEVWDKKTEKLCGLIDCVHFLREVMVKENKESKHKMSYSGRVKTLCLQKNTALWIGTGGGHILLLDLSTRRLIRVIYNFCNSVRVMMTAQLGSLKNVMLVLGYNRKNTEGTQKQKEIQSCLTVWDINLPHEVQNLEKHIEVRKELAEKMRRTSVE", "assay": "LRRKtide 32P-ATP peptide kinase assay (Protocol 1), truncated LRRK2", "assay_type": "biochemical", "conditions": "10 μM ATP, 200 μM lrrktide", "procedure": "as §1, §2\n(§3) For Irrktide phosphorylation, recombinant LRRK2 is incubated with 6 μCi of 32P-ATP (3000 Ci/mmol), 200 μM Irrktide, 10 μM ATP and compound or solvent per 40 μl reaction for 30 minutes at 30° C. Compounds are tested at concentrations ranging from […]; the final amount of DMSO in the kinase reaction is 1%. Reactions are stopped and spotted to P81 phosphocellulose paper and washed 4×10 minutes in 75 mM phosphoric acid. Lrrktide phosphorylation levels are measured via autoradiography. Kinase assays are performed for each condition in triplicate.\n(§4) LRRKtide phosphorylation levels are plotted vs. the log of the compound concentration and inhibition curves are fitted from which IC50 values are derived."}, "[2]": {"target": "T3, truncated LRRK2-G2019S (GST tagged LRRK2-G2019S of amino acids 970-2527) (Homo sapiens, UniProt Q5S007, G2019S)", "T3 construct": "GST tagged LRRK2-G2019S of amino acids 970-2527; GST", "T3 sequence (Q5S007 970-2527 G2019S)": "as the sequence (Q5S007 970-2527) above, with G1050S counted along it", "assay": "LRRKtide 32P-ATP peptide kinase assay (Protocol 1), truncated LRRK2-G2019S", "assay_type": "biochemical", "conditions": "10 μM ATP, 200 μM lrrktide", "procedure": "as §1, §2, §3, §4"}}, "note": "pIC50: −log10 of the molar value.", "data": [{"smiles": "O=C1CCCOc2cccc(c2)-c2cnn3ccc(nc23)NCCN1", "note": "[Example 2]", "values": [{"measurement": "pIC50", "setting": "full-length LRRK2", "result": "> 7.00"}, {"measurement": "pIC50", "setting": "[1]", "result": "6.00 to 7.00"}, {"measurement": "pIC50", "setting": "[2]", "result": "6.00 to 7.00"}, {"measurement": "melting point", "result": "> 300", "unit": "°C"}]}, {"smiles": "O=C1CCNc2ccn3ncc(c3n2)-c2cccc(c2)OCCN1", "note": "[Example 3]", "values": [{"measurement": "pIC50", "setting": "full-length LRRK2", "result": "> 7.00"}, {"measurement": "pIC50", "setting": "[1]", "result": "> 7.00"}, {"measurement": "pIC50", "setting": "[2]", "result": "> 7.00"}, {"measurement": "melting point", "result": "> 300", "unit": "°C"}]}]}
